Test results from ChEMBL document CHEMBL4482315, “In vivo imaging of sulfotransferases” (2013).
Activity calls are given as the source filed them. The rule behind the calls is not given here.

Tested on: Rattus norvegicus
Assay: In-vivo substrate activity at SULT1A in brain of Sprague-Dawley rat with renal hypertension a at 0.5 to 2 mCi dosed via bolus injection measured after 60 mins post dose by microPET imaging method
Format: functional, organism-based
Settings: tested as the 18F-labelled form

## O=[N+]([O-])c1cc(O)ccc1F
  Activity: Active
